Laboratory results published in article PMC3878165 (Bioorganic & Medicinal Chemistry Letters, 2013).
pIC50: −log10 of the molar value.

Tests used:
PLpro = PLpro (Severe acute respiratory syndrome coronavirus, UniProt P0C6U8); assay: biochemical; parameters: species or system SARS-CoV
[1] = system: Eurofins lead-profiling screen; assay type: binding
melatonin MT1 receptor = melatonin MT1 receptor (Homo sapiens, UniProt P48039); assay type: binding
Sequence of melatonin MT1 receptor (P48039 whole entry): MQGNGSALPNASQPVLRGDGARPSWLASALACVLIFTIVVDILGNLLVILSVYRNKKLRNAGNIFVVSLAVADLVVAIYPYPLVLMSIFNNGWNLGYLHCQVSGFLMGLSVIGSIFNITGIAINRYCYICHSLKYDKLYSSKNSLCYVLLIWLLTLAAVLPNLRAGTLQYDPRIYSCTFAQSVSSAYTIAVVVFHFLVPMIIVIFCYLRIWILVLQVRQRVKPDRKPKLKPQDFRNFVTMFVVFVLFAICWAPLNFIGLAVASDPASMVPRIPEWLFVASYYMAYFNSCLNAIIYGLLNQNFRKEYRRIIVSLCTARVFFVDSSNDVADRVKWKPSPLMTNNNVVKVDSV

SMILES	pIC50 (PLpro)	Eurofins Profiler Screen result in words [1]	melatonin MT1 receptor activity in words (melatonin MT1 receptor)
CCC(C)(C)NC(=O)[C@@H](c1ccn(C)c1)N(C(=O)Cn1nnc2ccccc21)c1ccc(NC(C)=O)cc1 [compound 7]	< 4.22	–	–
O=C(Nc1ccc(N(Cc2ccsc2)C(=O)Cn2nnc3ccccc32)cc1)C1CC1 [16e]	–	highly selective	modest activity
